Some results are limits rather than exact numbers.

In one experiment the target is biotinylated Avi-POLθ[2-894] (Homo sapiens (Human), UniProt O75417). In words: POLθ ATPase assay (ADP-Glo). Conditions: POLθ ATPase, ADP-Glo; n=2; read-out: Biochemical ATPase ADPGlo IC50. (In general: ADP-Glo turns the ADP formed in a reaction into a luminescent signal.)
Sequence of biotinylated Avi-POLθ[2-894] (O75417 2-894): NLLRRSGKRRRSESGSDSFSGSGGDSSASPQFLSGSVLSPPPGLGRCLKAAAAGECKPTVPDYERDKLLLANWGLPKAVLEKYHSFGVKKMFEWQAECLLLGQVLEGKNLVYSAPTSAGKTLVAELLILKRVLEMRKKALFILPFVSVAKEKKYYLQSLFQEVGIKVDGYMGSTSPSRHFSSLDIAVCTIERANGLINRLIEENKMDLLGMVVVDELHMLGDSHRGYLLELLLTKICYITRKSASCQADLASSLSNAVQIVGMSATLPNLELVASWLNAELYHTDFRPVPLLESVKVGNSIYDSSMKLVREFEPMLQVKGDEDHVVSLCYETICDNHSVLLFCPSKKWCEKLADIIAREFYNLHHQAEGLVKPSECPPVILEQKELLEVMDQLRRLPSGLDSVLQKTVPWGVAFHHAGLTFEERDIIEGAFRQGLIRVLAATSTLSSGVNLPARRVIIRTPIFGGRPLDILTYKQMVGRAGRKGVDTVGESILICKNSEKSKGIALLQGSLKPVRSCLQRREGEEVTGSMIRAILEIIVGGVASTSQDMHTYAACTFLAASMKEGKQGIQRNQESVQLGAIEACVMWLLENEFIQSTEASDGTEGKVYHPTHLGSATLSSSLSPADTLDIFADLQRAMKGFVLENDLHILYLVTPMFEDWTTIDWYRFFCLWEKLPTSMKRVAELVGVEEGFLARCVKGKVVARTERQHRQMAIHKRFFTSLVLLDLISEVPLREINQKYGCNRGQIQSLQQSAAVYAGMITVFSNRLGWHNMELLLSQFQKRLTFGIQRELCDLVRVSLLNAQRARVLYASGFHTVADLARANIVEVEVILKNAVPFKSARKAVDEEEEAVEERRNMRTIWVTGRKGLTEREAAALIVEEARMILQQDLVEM
In general, IC50 refers to the point on the concentration scale where inhibition reaches its midpoint. For `COc1cnc(Cl)cc1-c1cc(C)ncc1C(=O)Nc1nc2c(s1)CN(C(=O)[C@H]1CC[C@](O)(C(F)(F)F)C1)C2` [Example 736, 2′-chloro-N-(S-((1S,3R)-3-hydroxy-3-(trifluoromethyl)cyclopentane-1-carbonyl)-5,6-dihydro-4H-pyrrolo[3,4-d]thiazol-2-yl)-5′-methoxy-6-methyl-[4,4′-bipyridine]-3-carboxamide], the IC50 fell in the range of 1 to 15 nM.

Take `COc1cc(Cl)c(C(=O)N2Cc3nc(NC(=O)c4cnc(C)cc4-c4cc(Cl)ncc4OC)sc3C2)nn1`: the IC50 is 1 to 15 nM.

For `COc1nc(C(=O)N2Cc3nc(NC(=O)c4cnc(C)cc4-c4cc(Cl)cnc4O)sc3C2)c(C)cc1C(F)(F)F` [Example 1043, 5-chloro-2-hydroxy-N-(5-(6-methoxy-3-methyl-5-(trifluoromethyl)picolinoyl)-5,6-dihydro-4H-pyrrolo[3,4-d]thiazol-2-yl)-6′-methyl-[3,4′-bipyridine]-3′-carboxamide], the concentration for half-maximal inhibition (IC50) was at least 900 nM.

In the case of `COc1cnc(Cl)cc1-c1cc(C)ncc1C(=O)Nc1nc2c(s1)C[C@@H](C(=O)N[C@H]1CC[C@H]1O)CC2`, the half-inhibitory concentration (IC50) lay within 150 to 900 nM.

For `COc1cnc(Cl)cc1-c1cc(C)ncc1C(=O)Nc1nc2c(s1)C[C@H](C(=O)N[C@@H]1CC[C@@H]1O)CC2`, the half-inhibitory concentration (IC50) fell in the range of 150 to 900 nM.

Turning to `COc1cnc(Cl)cc1-c1cc(C)ncc1C(=O)Nc1nc2c(s1)CN(C(=O)c1cnc(C(F)(F)F)nc1)C2` [Example 483], the IC50 lay within 1 to 15 nM.

`COc1cnc(Cl)cc1-c1cc(C)ncc1C(=O)Nc1nc2c(s1)CN(C(=O)c1ccc(C(F)(F)F)nc1OC)C2C` (single isomer, unassigned) [Example 1037, (R or S)-2′-chloro-5′-methoxy-N-(5-(2-methoxy-6-(trifluoromethyl)nicotinoyl)-4-methyl-5,6-dihydro-4H-pyrrolo[3,4-d]thiazol-2-y])-6-methyl-[4,4′-bipyridine]-3-carboxamide]: the half-maximal inhibitory concentration (IC50) is 15 to 50 nM.

In the case of `COc1cncc(C(=O)N2Cc3nc(NC(=O)c4cnc(C)cc4-c4cc(Cl)ncc4OC)sc3C2)n1` [Example 528], the 50% inhibitory concentration (IC50) fell in the range of 1 to 15 nM.

For `COc1cnc(Cl)cc1-c1cc(C)ncc1C(=O)Nc1nc2c(s1)C[C@H](C(=O)N1CC(O)C1)CC2`, the IC50 fell in the range of 50 to 150 nM.

Regarding `COc1cnc(Cl)cc1-c1cc(C)ncc1C(=O)Nc1nc2c(s1)CN(C(=O)c1cncc(C)n1)C2`, the IC50 lay in the range of 1 to 15 nM.

Still in this experiment, the particulars now being: n=2; read-out: Biochemical ATPase ADPGlo IC50.
`COc1cnc(Cl)cc1-c1cc(C)ncc1C(=O)Nc1nc2c(s1)CN(C(=O)c1ncn(C)n1)C2` [Example 50, 2′-chloro-5′-methoxy-6-methyl-N-(5-(1-methyl-1H-1,2,4-triazole-3-carbonyl)-5,6-dihydro-4H-pyrrolo[3,4-d]thiazol-2-yl)-[4,4′-bipyridine]-3-carboxamide]: the IC50 was in the range of 1 to 15 nM.

Take `COc1cnc(Cl)cc1-c1cc(C)ncc1C(=O)Nc1nc2c(s1)CN(C(=O)c1ccnn1C(F)F)C2` (racemic) [Example 137]: the IC50 fell in the range of 1 to 15 nM.

For `COc1cnc(Cl)cc1-c1cc(C)ncc1C(=O)Nc1nc2c(s1)CN(C(=O)[C@H]1C[C@@](F)(CO)C1)C2` [Example 106, 2′-chloro-N-(5-((1r,3r)-3-fluoro-3-(hydroxymethyl)cyclobutane-1-carbonyl)-5,6-dihydro-4H-pyrrolo[3,4-d]thiazol-2-yl)-5′-methoxy-6-methyl-[4,4′-bipyridine]-3-carboxamide], the 50% inhibitory concentration (IC50) lay in the range of 1 to 15 nM.

Turning to `COc1ccccc1-c1cc(C)ncc1C(=O)Nc1nc2c(s1)CN(c1ccccn1)C2` (racemic), the IC50 was at least 900 nM.

Take `COc1ccccc1-c1cc(C)ncc1C(=O)Nc1nc2c(s1)CC(c1ccc(Cl)cc1)CC2` (racemic): the IC50 is 150 to 900 nM.

Consider `COc1ccc(C#N)cc1-c1cc(C)ncc1C(=O)Nc1nc2c(s1)CN(C(=O)[C@@H]1CC[C@H]1OC)C2` [Example 235], for which the IC50 lay within 1 to 15 nM.

For the compound `COc1cnc(Cl)cc1-c1cc(C)ncc1C(=O)Nc1nc2c(s1)CN(C(=O)[C@H]1CCOC1)C2`, the half-inhibitory concentration (IC50) was 15 to 50 nM.

For the compound `COc1ccccc1-c1cc(C)ncc1C(=O)Nc1nc2c(s1)CN(C(=O)C1(O)COC1)C2`, the IC50 lay in the range of 150 to 900 nM.

`COc1ccccc1-c1cc(C)ncc1C(=O)Nc1nc2c(s1)CN(C(=O)c1ccc(=O)n(C)c1)C2`: the IC50 lay in the range of 150 to 900 nM.

With `COc1ccccc1-c1cc(C)ncc1C(=O)Nc1nc2c(s1)CN(C(=O)c1ncon1)C2`, the IC50 was 50 to 150 nM.

Regarding `COc1ccccc1-c1cc(C)ncc1C(=O)Nc1nc2c(s1)CC(c1ccc(Cl)cc1)CC2` (centres unmarked), the 50% inhibitory concentration (IC50) was 150 to 900 nM.

Turning to `COc1cnc(Cl)cc1-c1cc(C)ncc1C(=O)Nc1nc2c(s1)CN(C(=O)C1CCC(O)C1)C2` (centres unmarked) [Example 180], the IC50 was 1 to 15 nM.

Consider `COc1cnc(Cl)cc1-c1cc(C)ncc1C(=O)Nc1nc2c(s1)CN(C(=O)C1CC(O)(C(F)(F)F)C1)C2` (centres unmarked) [Example 204], for which the half-inhibitory concentration (IC50) was 1 to 15 nM.

Turning to `COc1cnc(Cl)cc1-c1cc(C)ncc1C(=O)Nc1nc2c(s1)CN(C(=O)c1ncc(C)cn1)C2` [Example 34, 2′-chloro-5′-methoxy-6-methyl-N-(5-(5-methylpyrimidine-2-carbonyl)-5,6-dihydro-4H-pyrrolo[3,4-d]thiazol-2-yl)-[4,4′-bipyridine]-3-carboxamide], the IC50 was in the range of 1 to 15 nM.

Turning to `COc1ccc(C#N)cc1-c1cc(C)ncc1C(=O)Nc1nc2c(s1)CN(C(=O)C1COC1)CC2` (single isomer, unassigned), the half-inhibitory concentration (IC50) is 150 to 900 nM.

Turning to `COc1cnc(Cl)cc1-c1cc(C)ncc1C(=O)Nc1nc2c(s1)CN(C(=O)C1CCC(OC)C1)C2` (racemic) [Example 101, (Racemic)-2′-chloro-5′-methoxy-N-(5-(3-methoxycyclopentane-1-carbonyl)-5,6-dihydro-4H-pyrrolo[3,4-d]thiazol-2-yl)-6-methyl-[4,4′-bipyridine]-3-carboxamide], the IC50 was in the range of 1 to 15 nM.

With `COc1ccc(C#N)cc1-c1cc(C)ncc1C(=O)Nc1nc2c(s1)CN(C(=O)C1CC1(F)F)CC2` (single isomer, unassigned) [Example 210], the concentration for half-maximal inhibition (IC50) lay within 150 to 900 nM.

As for `COc1ccccc1-c1cc(C)ncc1C(=O)Nc1nc2c(s1)CCCC2`, the half-maximal inhibitory concentration (IC50) was at least 900 nM.

On to `CNS(=O)(=O)N1Cc2nc(NC(=O)c3cnc(C)cc3-c3ccccc3OC)sc2C1`, for which the half-inhibitory concentration (IC50) fell in the range of 50 to 150 nM.

On to `COc1ccc(C#N)cc1-c1cc(C)ncc1C(=O)Nc1nc2c(s1)CN(S(=O)(=O)NC1CCCC1)C2` [Example 230], for which the 50% inhibitory concentration (IC50) lay in the range of 1 to 15 nM.

In the case of `COc1ccc(C#N)cc1-c1cc(C)ncc1C(=O)Nc1nc2c(s1)CN(C(=O)C1CCOC1)CC2` (centres unmarked), the 50% inhibitory concentration (IC50) lay within 150 to 900 nM.

On to `COc1ccc(C#N)cc1-c1cc(C)ncc1C(=O)Nc1nc2c(s1)CN(C(=O)C1CCC1)CC2` [Example 224], for which the 50% inhibitory concentration (IC50) lay within 150 to 900 nM.

Take `COc1ccccc1-c1cc(C)ncc1C(=O)Nc1nc2c(s1)CC(c1ccc(Cl)cc1)=CC2` [Example 328]: the IC50 was 150 to 900 nM.

Turning to `COc1ccccc1-c1cc(C)ncc1C(=O)Nc1nc2c(s1)CN(C(=O)Cn1cccn1)C2`, the IC50 was at least 900 nM.

Consider `COc1cn2cncc2cc1-c1cc(C)ncc1C(=O)Nc1nc2c(s1)CN(C(=O)[C@H]1C[C@H](OC(F)(F)F)C1)C2` [Example 22, 4-(6-methoxyimidazo[1,5-a]pyridin-7-yl)-6-methyl-N-(5-((1r,3r)-3-(trifluoromethoxy)cyclobutane-1-carbonyl)-5,6-dihydro-4H-pyrrolo[3,4-d]thiazol-2-yl)nicotinamide], for which the half-inhibitory concentration (IC50) is 15 to 50 nM.

As for `COc1ccccc1-c1cc(C)ncc1C(=O)Nc1nc2c(s1)CN(C(=O)C1CCN1C(C)=O)C2` (centres unmarked), the concentration for half-maximal inhibition (IC50) is at least 900 nM.

As for `COc1cnc(Cl)cc1-c1cc(C)ncc1C(=O)Nc1nc2c(s1)CN(C(=O)[C@@H]1C[C@H]1CO)C2` [Example 102, 2′-chloro-N-(5-((1R,2R)-2-(hydroxymethyl)cyclopropane-1-carbonyl)-5,6-dihydro-4H-pyrrolo[3,4-d]thiazol-2-yl)-5′-methoxy-6-methyl-[4,4′-bipyridine]-3-carboxamide], the IC50 was in the range of 1 to 15 nM.

Take `COc1ccccc1-c1cc(C)ncc1C(=O)Nc1nc2c(s1)CN(C(=O)c1cnccn1)C2`: the IC50 was in the range of 50 to 150 nM.

`COc1ccc(C#N)cc1-c1cc(C)ncc1C(=O)Nc1nc2c(s1)CN(C(=O)C1CC1OC)CC2` (mixture of isomers) [Example 214, 4-(5-cyano-2-methoxyphenyl)-N-(5-(2-methoxycyclopropane-1-carbonyl)-4,5,6,7-tetrahydrothiazolo[5,4-c]pyridin-2-yl)-6-methylnicotinamide Mixture of isomers]: the IC50 lay within 150 to 900 nM.

Consider `COc1ccc(C#N)cc1-c1cc(C)ncc1C(=O)Nc1nc2c(s1)CN(C(=O)C1CCCC1)CC2` (single isomer, unassigned), for which the IC50 lay in the range of 150 to 900 nM.

With `COc1ccccc1-c1cc(C)ncc1C(=O)Nc1nc2c(s1)CN(S(=O)(=O)C1CCC1)C2`, the half-inhibitory concentration (IC50) was in the range of 15 to 50 nM.

Regarding `COc1cnc(Cl)cc1-c1cc(C)ncc1C(=O)Nc1nc2c(s1)CN(C(=O)c1cn(C)nc1C)C2` (racemic), the half-inhibitory concentration (IC50) lay within 1 to 15 nM.

`COc1ccccc1-c1cc(C)ncc1C(=O)Nc1nc2c(s1)CN(C(=O)c1nc3ccccn3n1)C2` [Example 252]: the half-inhibitory concentration (IC50) was in the range of 50 to 150 nM.

Consider `COc1ccccc1-c1cc(C)ncc1C(=O)Nc1nc2c(s1)CN(C(=O)c1cccn(C)c1=O)C2`, for which the IC50 fell in the range of 150 to 900 nM.

For `COc1ccccc1-c1cc(C)ncc1C(=O)Nc1nc2c(s1)CN(C(=O)C1CCCO1)C2` (racemic), the half-inhibitory concentration (IC50) lay in the range of 150 to 900 nM.

As for `COc1ccccc1-c1cc(C)ncc1C(=O)Nc1nc2c(s1)CN(C1CCCCC1)CC2`, the IC50 was at least 900 nM.

For `CNC(=O)N1Cc2nc(NC(=O)c3cnc(C)cc3-c3ccccc3OC)sc2C1`, the half-maximal inhibitory concentration (IC50) was at least 900 nM.

For the compound `COc1ccccc1-c1cc(C)ncc1C(=O)Nc1nc2c(s1)CN(C(=O)C1(C)COC1)C2`, the IC50 was at least 900 nM.

As to `COc1cnc(Cl)cc1-c1cc(C)ncc1C(=O)Nc1nc2c(s1)CN(C(=O)c1cnn(CC(F)F)c1)C2`, the IC50 is 1 to 15 nM.

For `COc1ccccc1-c1cc(C)ncc1C(=O)Nc1nc2c(s1)CN(C(=O)C13CC(C#N)(C1)C3)C2`, the IC50 lay within 150 to 900 nM.

The record behind these values is patent US20250230171A1 (MOMA Therapeutics, Inc., priority 2023, published 2025).
